Assay results taken from US5665754A, “Substituted pyrrolidines” (Glaxo Wellcome Inc., priority 1993, dated 1997).

Tested on: TNFα secretion from murine elicited peritoneal macrophages
Experiment: Assay for inhibition of LPS-induced TNFα production
Assay type: cell-based, mouse
Conditions: preliminary experiments
Text: In order to assess the ability of a compound to reduce TNFα secretion in elicited mouse peritoneal macrophages, the following protocol was employed. […] (See Scales, W. E., S. W. Chensuc, I. Otterness and S. L. Kunkel, 1989, Regulation of monokine gene expression: Prostaglandin E2 suppresses tumor necrosis factor but not interleukin-1a or b-mRNA and cell-associated bioactivity, J. Leukocytc Biology 45:416-421.). (See also Renz, H., J-H. Gong, A. Schmidt, M. Nain and Diethard Gemsa, 1988, Release of tumor necrosis factor-a from macrophages. Enhancement and suppression are dose-dependently regulated by prostaglandin E2 and cyclic nucleotides, J. Immunol. 1 41:2388-2393). […] (See Noel, L. S., M. Verghese, K. M. Connelly, L. J. Sekut and S. A. Stimpson, 1992, Type IV-specific phosphodiesterase (PDE) inhibitors suppress murine TNFα expression in vitro and in vivo-(abstract)--6th International Conference, Inflammation Research Association). TNFα secretion from murine elicited peritoneal macrophages was used as a readout for a compound's ability to raise cAMP, and/or inhibit phosphodiesterase within a cell.
Mice (female C3H mice, 15-20 gm body weight) were injected intraperitoneally with 2 mL of 5 mM sodium periodate solution. […] TNFα protein in the supernatant fluids was measured using a commercially available enzyme-linked immunosorbant assay (ELISA) (Genzyme).

SMILES: COc1ccc(C2CNC(=O)C2)cc1OC1CCCC1 (stereo not shown) [rolipram]
- LPS induced TNFα secretion from murine macrophages: inhibited
